Test results as given in patent US20210023089A1, “Compositions Useful for Treating Herpes Simplex Keratitis, and Methods Using Same” (priority 2013, published 2021).

Legend:
[1] = target: T1, ATM (Homo sapiens, UniProt Q13315); experiment: pATM Western blot in bleomycin-damaged ex vivo human corneas (bioavailability); assay type: cell-based; settings: bleomycin 200 μg/mL 1 hour, KU-55933 10 μM 1 hour pretreatment
T1 construct: The epithelial layers were collected for protein lysates and analyzed by Western blot with antibodies against pATM (Ser1981) and total ATM; tissue Lions Eye Bank of Delaware Valley; host or cells: epithelial layer of explanted human corneas
Experimental: Human corneas were obtained from the Lions Eye Bank of Delaware Valley. Rabbit corneas were excised from intact fresh eyeballs of young (8-12 weeks) albino rabbits (Pel-Freez Biologicals, Rogers, Ark.). Protocol (Alekseev et al., 2012, J Vis Exp 69:e3631) for ex vivo corneal culture, infection, and treatment was followed closely. Briefly, corneoscleral buttons were excised and rinsed in PBS containing 200 U/mL penicillin and 200 μg/mL streptomycin. The endothelial concavity was filled with culture medium containing 1% low melting temperature agarose. The corneas were cultured epithelial side up in MEM medium supplemented with nonessential amino acids (1×), 2 mM […], 200 U/mL penicillin, and 200 μg/mL streptomycin. The next day, they were infected with 1×10^4 plaque forming units (PFU)/cornea of strain KOS HSV-1 for 1 hour, rinsed, and overlaid with fresh medium. Drug treatments were administered at the same concentrations as for cultured cells. For KU-55933 bioavailability assessment, corneas were treated with bleomycin (200 μg/mL) for 1 hour. […] Treatment toxicity was assessed by briefly staining the cornea with fluorescein (1% wt/vol in PBS) and imaging the epithelial defects with 464-nm wavelength blue light (LDP LLC, Carlstadt, N.J.).
Standard protocol was followed for Western blot analysis. […] Protein concentrations were measured by bicinchoninic acid (BCA) assay. […]

[2] = test system: ATM; experiment: pATM immunofluorescence in HEK293 cells transfected with purified HSV-1 genome; assay type: cell-based, human; settings: HEK293 transfected with HSV-1 KOS genome, PAA for 24 hours
Experimental: Transfection of plasmids was done with GenDrill (BamaGen, Gaithersburg, Md.), whereas transfection of BACs was accomplished with Lipofectamine transfection reagent (Invitrogen, Carlsbad, Calif.). All transfections followed standard protocols and manufacturer's instructions. Medium was changed at 6 hour post transfection.
Cells were grown on cover slips, treated as indicated, fixed in 3% paraformaldehyde/2% sucrose solution for 10 min, and permeabilized with 0.5% Triton X-100 for 5 min. Indirect immunofluorescence was performed with primary antibodies overnight followed by secondary antibody staining for 2 hours. Primary antibodies were the same as those used for Western blotting. Nuclei were counterstained with […] of Höchst 33258.
(§1) hTCEpi, EPC2, and OKF6 are normal human epithelial cells from cornea, esophagus, and palate, respectively. HEK293 are human embryonic kidney epithelial cells. Cells were treated with tissue culture grade KU-55933 (10 μM), cycloheximide (5 μg/ml), phosphonoacetic acid (400 μg/ml), and H2O2 (150 μM). Viral particles were pre-treated with UV light at 0.2 J/cm^2.

[3] = test system: ATM; experiment: ATM activation (pChk2 Western blot) in HSV-1 infected hTCEpi cells; assay type: cell-based, human; settings: for effect on ATM activation (pChk2 staining): hTCEpi infected with HSV-1 at a range of MOIs, 1 hpi, PAA 400 μg/ml, CHX 5 μg/ml
Experimental: Standard protocol was followed for Western blot analysis. Cell lysates were collected in Laemmli buffer, vortexed, and boiled at 95° C. for 5 min. Protein concentrations were measured by reducing agent-compatible BCA assay. SDS-PAGE was followed by transfer onto a PVDF membrane, which was then blocked in 5% BSA. Primary antibody staining was performed overnight and blots were visualized on film or with the Odyssey near-infrared system (LI-COR, Lincoln, Nebr.). Primary antibodies against the following proteins were used: ICP0 (Virusys Corporation, Taneytown, Md.), ICP4, PML, and nucleolin (Santa Cruz Biotechnology, Santa Cruz, Calif.), ICP8, glycoproteins B and C, ATM and pATM-Ser1981 (Rockland, Gilbertsville, Pa.), Chk2 and pChk2-Thr68 (Cell Signaling, Danvers, Mass.).
as §1
Cultured cells were infected by applying the desired viral load in an inoculum volume equal to 10% of the normal volume of growth medium. During infection, cells were maintained at 37° C. and 5% CO2 and rocked every 10-15 min for 1 hour. Cells were then rinsed thoroughly with PBS and overlaid with fresh medium. For synchronized infections, virus was allowed to adsorb to cells while rocking at 4° C. After 1 hour, cells were transferred to 37° C. and 5% CO2 to initiate synchronized infection.

[4] = test system: dlsptk strain of HSV-1 (TK mutant); experiment: qPCR of genome replication of drug-resistant HSV-1 in hTCEpi cells; assay type: cell-based; settings: MOI 0.1, 16 hpi, KU-55933 10 μM, acyclovir 50 μg/mL
Experimental: All cells were cultured at 37° C. and 5% CO2 and supplemented with 100 U/mL penicillin and […]. Human corneal epithelial cells immortalized with hTERT (hTCEpi; Robertson, et al., 2005, Invest Ophthalmol Vis Sci. 46:470-478) were grown in complete keratinocyte growth medium 2 (KGM-2; Lonza, Basel, Switzerland). African green monkey kidney fibroblasts (CV-1; American Type Culture Collection, Manassas, Va.) were grown in Dulbecco's modified Eagle's medium (DMEM; Cellgro, Manassas, Va.) supplemented with 10% FBS. The KOS strain of HSV-1 was used in the in vitro and ex vivo infections, whereas McKrae strain was used for in vivo mouse experiments, and TK mutant dlsptk strain (Coen et al., 1989, Proc Natl Acad Sci USA 86:4736-4740) was used in the drug resistance experiments. All viral stocks were titered on CV-1 monolayers.
The following strains of HSV-1 were used: KOS, ICPO-null, HFEM, and tsB7. Subconfluent monolayers of cells were grown in six-well plates. Drug treatments were administered 45 minutes prior to infection and continued for the entire duration of each experiment. Unless indicated otherwise, KU-55933 (Batch No. 5, 99.7% purity; Tocris Bioscience, Bristol, UK) was used at 10 μM final concentration, phosphonoacetic acid (PAA) at 400 μg/mL (Sigma-Aldrich, St. Louis, Mo.), and acyclovir at 50 μg/mL (Sigma-Aldrich). KU-55933 was dissolved in dimethyl sulfoxide (DMSO), and the final concentration of DMSO in both KU-55933 and mock treatment in the in vitro and the ex vivo experiments was 0.1%.
Viral genome replication and transcription were measured by quantitative PCR (qPCR). Total DNA and RNA from infected cells were isolated using the DNeasy Blood & Tissue Kit and the RNeasy Mini Kit, respectively (QIAGEN, Hilden, Germany). RNA was converted to cDNA using qScript (Quanta BioSciences, Gaithersburg, Md.). […] Transcription of the three gene families was measured with primers for RL2 (ICPO), UL30 (DNA polymerase catalytic subunit), and UL44 (gC), with reference primers for the 18S ribosomal RNA (rRNA).

T1 sequence (Q13315 whole entry): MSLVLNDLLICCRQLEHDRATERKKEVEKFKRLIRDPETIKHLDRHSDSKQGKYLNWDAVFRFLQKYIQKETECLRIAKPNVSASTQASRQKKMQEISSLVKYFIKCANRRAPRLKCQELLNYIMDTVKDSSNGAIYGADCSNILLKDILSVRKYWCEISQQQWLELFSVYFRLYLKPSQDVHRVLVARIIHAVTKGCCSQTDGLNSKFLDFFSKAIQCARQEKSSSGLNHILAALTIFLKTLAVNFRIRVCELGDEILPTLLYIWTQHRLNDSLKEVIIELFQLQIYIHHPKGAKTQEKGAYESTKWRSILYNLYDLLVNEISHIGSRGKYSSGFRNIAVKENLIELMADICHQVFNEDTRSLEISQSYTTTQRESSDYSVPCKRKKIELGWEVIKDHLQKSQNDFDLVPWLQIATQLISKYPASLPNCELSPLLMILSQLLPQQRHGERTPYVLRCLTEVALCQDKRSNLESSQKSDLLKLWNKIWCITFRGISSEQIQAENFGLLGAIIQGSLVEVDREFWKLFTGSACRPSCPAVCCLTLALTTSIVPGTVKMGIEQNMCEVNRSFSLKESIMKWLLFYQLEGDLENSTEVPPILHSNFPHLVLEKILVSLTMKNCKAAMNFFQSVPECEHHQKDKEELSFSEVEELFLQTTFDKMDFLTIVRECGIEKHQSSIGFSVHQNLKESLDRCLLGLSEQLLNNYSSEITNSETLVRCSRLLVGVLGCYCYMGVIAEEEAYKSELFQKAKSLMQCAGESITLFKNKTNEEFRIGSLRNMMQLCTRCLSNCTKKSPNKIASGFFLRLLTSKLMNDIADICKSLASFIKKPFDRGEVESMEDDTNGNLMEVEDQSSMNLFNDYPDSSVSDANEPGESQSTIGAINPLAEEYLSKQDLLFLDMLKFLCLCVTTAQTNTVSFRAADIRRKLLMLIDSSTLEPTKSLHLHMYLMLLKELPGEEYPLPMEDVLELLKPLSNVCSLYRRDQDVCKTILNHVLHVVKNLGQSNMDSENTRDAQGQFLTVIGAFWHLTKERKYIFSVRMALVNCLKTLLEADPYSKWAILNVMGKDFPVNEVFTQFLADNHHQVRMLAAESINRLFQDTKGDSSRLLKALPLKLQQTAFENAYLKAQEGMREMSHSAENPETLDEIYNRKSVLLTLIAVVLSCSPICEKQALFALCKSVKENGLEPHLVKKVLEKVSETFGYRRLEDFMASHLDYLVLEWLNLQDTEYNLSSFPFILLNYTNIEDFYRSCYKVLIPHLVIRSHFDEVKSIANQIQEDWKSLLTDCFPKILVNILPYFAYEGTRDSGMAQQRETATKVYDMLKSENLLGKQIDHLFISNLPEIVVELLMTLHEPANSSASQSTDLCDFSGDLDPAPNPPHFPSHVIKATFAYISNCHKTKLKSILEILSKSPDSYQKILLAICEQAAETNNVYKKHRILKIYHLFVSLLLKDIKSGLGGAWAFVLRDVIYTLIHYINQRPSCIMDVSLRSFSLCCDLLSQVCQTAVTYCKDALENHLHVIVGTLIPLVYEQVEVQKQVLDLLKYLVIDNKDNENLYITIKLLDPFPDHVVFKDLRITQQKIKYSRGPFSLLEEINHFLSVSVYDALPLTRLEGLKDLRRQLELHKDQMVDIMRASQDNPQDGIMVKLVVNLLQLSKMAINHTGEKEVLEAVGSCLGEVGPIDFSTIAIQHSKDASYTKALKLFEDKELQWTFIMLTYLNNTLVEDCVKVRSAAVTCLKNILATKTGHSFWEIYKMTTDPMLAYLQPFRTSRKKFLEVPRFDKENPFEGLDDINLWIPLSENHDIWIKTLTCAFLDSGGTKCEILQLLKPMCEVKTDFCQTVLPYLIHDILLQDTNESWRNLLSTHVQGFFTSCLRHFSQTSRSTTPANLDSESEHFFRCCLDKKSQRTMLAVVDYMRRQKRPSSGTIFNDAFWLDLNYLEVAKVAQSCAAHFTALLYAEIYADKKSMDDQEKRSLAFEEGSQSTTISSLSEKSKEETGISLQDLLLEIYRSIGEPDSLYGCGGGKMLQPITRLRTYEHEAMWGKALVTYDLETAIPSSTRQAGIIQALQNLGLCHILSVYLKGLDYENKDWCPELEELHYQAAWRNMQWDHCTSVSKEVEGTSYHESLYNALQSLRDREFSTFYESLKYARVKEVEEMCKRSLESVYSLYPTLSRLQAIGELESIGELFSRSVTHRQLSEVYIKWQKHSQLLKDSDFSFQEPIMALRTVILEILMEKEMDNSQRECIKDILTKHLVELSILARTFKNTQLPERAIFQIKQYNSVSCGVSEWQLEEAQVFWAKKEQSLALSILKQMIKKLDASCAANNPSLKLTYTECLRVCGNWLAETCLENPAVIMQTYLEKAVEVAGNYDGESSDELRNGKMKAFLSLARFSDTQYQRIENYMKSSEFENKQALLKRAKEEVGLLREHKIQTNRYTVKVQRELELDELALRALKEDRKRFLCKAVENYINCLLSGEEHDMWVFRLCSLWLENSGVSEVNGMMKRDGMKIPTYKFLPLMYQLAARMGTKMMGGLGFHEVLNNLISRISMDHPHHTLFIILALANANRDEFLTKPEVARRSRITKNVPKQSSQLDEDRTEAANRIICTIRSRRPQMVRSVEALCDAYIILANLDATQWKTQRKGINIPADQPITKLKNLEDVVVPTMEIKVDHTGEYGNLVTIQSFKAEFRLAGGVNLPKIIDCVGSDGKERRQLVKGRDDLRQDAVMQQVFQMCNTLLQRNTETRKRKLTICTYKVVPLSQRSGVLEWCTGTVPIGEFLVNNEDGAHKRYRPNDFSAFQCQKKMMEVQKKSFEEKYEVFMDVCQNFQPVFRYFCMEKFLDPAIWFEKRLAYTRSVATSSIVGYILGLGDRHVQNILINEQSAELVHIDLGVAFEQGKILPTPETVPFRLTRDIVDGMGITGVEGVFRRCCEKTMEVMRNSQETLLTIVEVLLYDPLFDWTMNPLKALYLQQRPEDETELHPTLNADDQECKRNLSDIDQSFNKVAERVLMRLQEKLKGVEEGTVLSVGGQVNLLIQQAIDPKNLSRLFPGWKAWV

Molecule: bleomycin
- pATM level in corneal epithelium [1]: high level of pATM

Molecule: O=C(O)CP(=O)(O)O [PAA, phosphonoacetic acid]
- ATM activation (pATM staining) in treated transfected cells [2]: not hindered in ATM activation
- effect on ATM activation (pChk2 staining) [3]: no effect

Molecule: Nc1nc2c(ncn2COCCO)c(=O)[nH]1 [acyclovir]
- genome replication of dlsptk strain (qPCR) [4]: largely unresponsive

Molecule: C[C@@H]1C[C@@H]([C@H](O)CC2CC(=O)NC(=O)C2)C(=O)[C@@H](C)C1 [CHX, cycloheximide]
- effect on pChk2 staining in PML-depleted cells ([3]; PML-depleted hTCEpi cells, compared with WT hTCEpi cells): same partial reduction
- effect on ATM activation (pChk2 staining) [3]: partial inhibitory effect
- effect on ATM activation by d120 (ICP4-null strain) ([3]; hTCEpi infected with d120, CHX 5 μg/ml): not affected
